Assay results taken from US7008786B2, “Microorganism producing L-lysine and processes for producing L-lysine using the same” (priority 2000, dated 2006).

Tests used:
[1] = system: Corynebacterium glutamicum CH77; experiment: Resistance to monensin: growth on minimal agar plate medium containing monensin; assay type: cell-based; conditions: Monensin 7,000 μg/l, 4 days, parent strain CH77
Procedure: (§1) The parent CH77 strain and the mutant CJM107 strain were tested for their resistance to monensin by the following method. Cells were grown in a Luria-Bertani (LB) liquid medium for 16 hours. Then, the cells were washed twice with a sterilized physiological saline and then, appropriately diluted and cultivated on a minimal agar plate medium [glucose 10 g, (NH4)2SO4 2 g, urea 2 g, KH2PO4 1 g, K2HPO4 3 g, MgSO4.7H2O 0.5 g, FeSO4.7H2O 10 mg, MnSO4.7H2O 10 mg, biotin 100 μg, Thiamin.HCl 100 μg, CaCl2.2H2O 100 μg, Na2B4O7.10H2O 80 μg, (NH4)6MoO27.4H2O 40 μg, ZnSO4.7H2O 10 μg, CuSO4.7H2O 10 μg, MnCl2.4H2O 10 μg, FeCl3.6H2O 1 mg, agar 20 g, if necessary L-leucine 0.1 g, if necessary L-threonine 0.1 g, if necessary L-methionine 0.1 g, per distilled water of 11 (pH 7.0)] containing monensin of 7,000 μg/1 for 4 days.

[2] = system: Corynebacterium glutamicum CJM107; experiment: as above; assay type: cell-based; conditions: Monensin 7,000 μg/l, 4 days, mutant strain CJM107
Procedure: as §1

`CC[C@@]1([C@@H]2O[C@@H]([C@H]3O[C@@](O)(CO)[C@H](C)C[C@@H]3C)C[C@@H]2C)CC[C@H]([C@]2(C)CC[C@]3(C[C@H](O)[C@@H](C)[C@@H]([C@@H](C)[C@@H](OC)[C@H](C)C(=O)O)O3)O2)O1` [Monensin, monensin] was tested, and the “Growth of CH77 in the presence of monensin” value [1] was “−” and the “Growth of CJM107 in the presence of monensin” value [2] was “+++”.
